The target in series [1] is T1, Amine oxidase [flavin-containing] A (Homo sapiens, UniProt P21397).
T1 sequence (P21397 whole entry): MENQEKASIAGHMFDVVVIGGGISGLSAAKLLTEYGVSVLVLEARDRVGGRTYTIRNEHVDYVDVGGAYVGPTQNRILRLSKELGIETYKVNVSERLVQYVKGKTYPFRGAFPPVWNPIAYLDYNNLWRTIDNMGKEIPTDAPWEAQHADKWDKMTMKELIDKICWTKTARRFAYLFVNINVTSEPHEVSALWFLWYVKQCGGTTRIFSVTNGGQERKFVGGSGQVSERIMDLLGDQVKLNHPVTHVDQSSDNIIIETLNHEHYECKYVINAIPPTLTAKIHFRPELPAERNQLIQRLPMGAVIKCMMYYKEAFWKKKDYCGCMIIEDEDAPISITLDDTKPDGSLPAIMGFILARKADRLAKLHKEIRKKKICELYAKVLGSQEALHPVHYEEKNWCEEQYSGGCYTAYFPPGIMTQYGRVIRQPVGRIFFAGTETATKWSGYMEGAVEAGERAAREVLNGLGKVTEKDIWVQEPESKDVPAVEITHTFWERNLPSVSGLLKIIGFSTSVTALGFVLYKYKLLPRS
Description: Inhibition of human recombinant MAO-A using p-tyramine as substrate incubated for 15 mins prior to substrate addition measured after 20 mins by fluorescence plate reader analysis

Series [2] in a line: Antioxidant activity assessed as trolox equivalent of AAPH radical scavenging activity compound preincubated for 10 mins followed by AAPH challenge measured every min for 120 mins by ORAC-FL assay. The format is physicochemical. Particulars: 2 h; call rule not given here.
Another series is filed under the species Homo sapiens. In words: Selectivity index, ratio of IC50 for human recombinant MAO-A to IC50 for human recombinant MAO-B.
Series [3] concerns the target T2, Amine oxidase [flavin-containing] B (Homo sapiens, UniProt P27338).
T2 sequence (P27338 whole entry): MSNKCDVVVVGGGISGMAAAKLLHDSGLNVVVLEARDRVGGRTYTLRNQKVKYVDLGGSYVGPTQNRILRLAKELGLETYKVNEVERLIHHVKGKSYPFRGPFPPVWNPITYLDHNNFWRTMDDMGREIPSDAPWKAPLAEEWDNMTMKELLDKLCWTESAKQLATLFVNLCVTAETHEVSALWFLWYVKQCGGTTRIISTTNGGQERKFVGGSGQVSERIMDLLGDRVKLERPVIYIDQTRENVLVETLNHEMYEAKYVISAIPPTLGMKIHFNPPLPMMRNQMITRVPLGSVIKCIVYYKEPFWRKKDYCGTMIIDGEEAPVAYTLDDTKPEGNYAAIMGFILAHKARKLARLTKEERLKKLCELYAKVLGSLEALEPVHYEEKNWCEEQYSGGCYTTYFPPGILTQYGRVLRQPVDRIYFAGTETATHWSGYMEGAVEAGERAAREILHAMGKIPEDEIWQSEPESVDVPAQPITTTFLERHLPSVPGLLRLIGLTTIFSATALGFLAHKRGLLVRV
Description: Inhibition of human recombinant MAO-B using benzylamine as substrate incubated for 15 mins prior to substrate addition measured after 20 mins by fluorescence plate reader analysis

The nature of another series: physchem. Particulars: PAMPA. Background: In PAMPA a lipid-coated filter parts donor from acceptor wells.
For series [4], the target named is Amyloid-beta precursor protein (Homo sapiens) (UniProt P05067). In words: Inhibition of Cu2+-induced amyloid beta (1 to 42) aggregation (unknown origin) at 50 uM after 24 hrs by thioflavin T fluorescence assay (reference value: 100%). Further details: scale not given: the % may be the effect or the level left.
Series [5] can be described thus: Metal chelating activity of the compound assessed as Fe2+ complex formation at 40 uM after 30 mins by UV-vis spectrometry. The format is physicochemical. The following applies: 0.5 h.
Series [6] is described as follows: Metal chelating activity of the compound assessed as Zn2+ complex formation at 40 uM after 30 mins by UV-vis spectrometry. The format is physicochemical. The following applies: 0.5 h.
Series [7] in a line: Metal chelating activity of the compound assessed as Cu2+ complex formation at 40 uM after 30 mins by UV-vis spectrometry. It is filed as physicochemical. Particulars: 0.5 h.

As usually defined, the IC50 is the concentration that gives 50% inhibition. By Papp is commonly meant the rate of passage across a membrane or cell layer, normalised by area and donor concentration.

Amyloid-beta precursor protein (Homo sapiens), sequence (P05067 whole entry): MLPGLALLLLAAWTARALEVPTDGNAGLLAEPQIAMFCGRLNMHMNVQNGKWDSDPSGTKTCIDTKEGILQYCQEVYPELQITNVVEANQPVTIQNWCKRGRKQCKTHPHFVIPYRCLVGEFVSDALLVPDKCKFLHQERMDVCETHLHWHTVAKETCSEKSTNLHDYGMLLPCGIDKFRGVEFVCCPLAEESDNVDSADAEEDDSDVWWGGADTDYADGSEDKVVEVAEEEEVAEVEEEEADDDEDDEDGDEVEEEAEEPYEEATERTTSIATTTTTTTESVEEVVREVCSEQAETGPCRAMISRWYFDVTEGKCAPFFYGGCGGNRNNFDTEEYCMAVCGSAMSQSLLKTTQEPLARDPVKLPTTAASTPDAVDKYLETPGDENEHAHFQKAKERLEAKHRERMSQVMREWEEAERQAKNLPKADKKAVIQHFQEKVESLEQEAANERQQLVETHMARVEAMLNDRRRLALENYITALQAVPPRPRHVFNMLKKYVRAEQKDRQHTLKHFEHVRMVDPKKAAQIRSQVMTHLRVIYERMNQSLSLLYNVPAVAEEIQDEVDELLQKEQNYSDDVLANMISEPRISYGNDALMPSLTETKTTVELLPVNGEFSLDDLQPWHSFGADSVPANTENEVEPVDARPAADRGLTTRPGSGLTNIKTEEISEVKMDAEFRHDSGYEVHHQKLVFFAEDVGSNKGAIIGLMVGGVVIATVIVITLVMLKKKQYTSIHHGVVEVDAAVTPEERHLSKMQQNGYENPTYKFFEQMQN
Description for physchem: Permeability of the compound at 100 ug/mL after 10 hrs by PAMPA-BBB assay

Turning to `C#CCN(C)[C@H](C)Cc1ccc(NCc2cc(Cl)ccc2O)cc1`, the IC50 came to 700 nM in series [1] and 310 nM in series [3]. For the same molecule, the Activity in series [2] came out at 4.44 µmol. Besides, in the series filed under Homo sapiens, the Ratio IC50 was 2.2.

Turning to `C#CCN(C)[C@H](C)Cc1ccc(NCc2cc(N(C)C)ccc2O)cc1`, the Activity in series [2] was 4.52 µmol. This molecule also displayed an IC50 in series [3] of over 1000 nM. The molecule further showed a Papp at 10 h, 100 ug/mL in the series “physchem” of 12.5 ×10⁻⁶ cm/s.

As for `C#CCN(C)[C@H](C)Cc1ccc(NCc2ncccc2OC)cc1`, the IC50 in series [1] was found to be 3410 nM; in series [3] it was 310 nM. Besides, the Activity in series [4] worked out at 69.1%; in series [2] it was 1.49 µmol.

For the molecule `C#CCN(C)[C@H](C)Cc1ccc(NCc2cc([N+](=O)[O-])ccc2O)cc1`, the Activity in series [2] turned out to be 2.1 µmol. This molecule displayed an IC50 in series [3] of 950 nM.

Consider `C#CCN(C)[C@H](C)Cc1ccc(NCc2cccc(OC)c2O)cc1`, for which the Activity in [2] worked out at 2.44 µmol. Also, the IC50 in series [3] was over 1000 nM.

With `C#CCN(C)[C@H](C)Cc1ccc(NCc2ccc(OC)cc2O)cc1`, the Activity in series [2] was determined as 4.35 µmol. This molecule showed an IC50 in series [3] of over 1000 nM.

Consider `C#CCN(C)[C@H](C)Cc1ccc(NCc2ncccc2C)cc1`, for which the IC50 in series [1] stood at 5530 nM; in series [3], 520 nM. In addition, the Activity in series [2] amounted to 1.78 µmol. Also, the Ratio IC50 in the series filed under Homo sapiens was found to be 10.6. Besides, the Papp at 10 h, 100 ug/mL in “physchem” was found to be 12.1 ×10⁻⁶ cm/s.

In the case of `C#CCN(C)[C@H](C)Cc1ccc(NCc2cc(O)ccc2O)cc1`, the values for the IC50 in series [1] and in series [3] were 1030 nM and 430 nM, respectively. For the same molecule, the Activity in [4] was 63.1%; in series [2] it was 5.67 µmol. Also, the Ratio IC50 in the series filed under Homo sapiens was 2.4. The same molecule yielded a Papp at 10 h, 100 ug/mL in “physchem” of 3.1 ×10⁻⁶ cm/s.

On to `CCN(CC)CCCC(C)Nc1ccnc2cc(Cl)ccc12` (stereo not given), for which the Activity in [4] worked out at 68.2%.

For `C#CCN(C)[C@H](C)Cc1ccc(NCc2ccccc2O)cc1`, the Activity result is “Active” in series [5]; 40.4% in series [4]; “Active” in series [6]; 4.2 µmol in series [2]; “Active” in [7]. Moreover, the IC50 amounted to 5370 nM in [1] and 210 nM in series [3]. Besides, the Ratio IC50 in the series listed under Homo sapiens turned out to be 25.6. In the series “physchem”, this molecule had a Papp at 10 h, 100 ug/mL of 11.5 ×10⁻⁶ cm/s.

As to `C#CCN(C)[C@H](C)Cc1ccc(NCc2cc(OC)ccc2O)cc1`, the IC50 in series [1] was found to be 1020 nM; in series [3], 310 nM. Besides, the Activity in series [2] stood at 3.81 µmol. The Ratio IC50 in the series filed under Homo sapiens was found to be 3.3. Moreover, in the series “physchem”, the Papp at 10 h, 100 ug/mL worked out at 11.7 ×10⁻⁶ cm/s.

Consider `C#CCN(C)[C@H](C)Cc1ccc(NCc2cc(F)ccc2O)cc1`, for which the Activity in series [2] was found to be 2.26 µmol. This molecule gave an IC50 in [3] of over 1000 nM.

(Values after ChEMBL document CHEMBL3585271 (Bioorg Med Chem, 2015).)
